According to patent US9474780B2, “GIP and GLP-1 co-agonist compounds” (Eli Lilly and Company, priority 2015, dated 2016):
Read-outs that look alike come from different tables or passages of the source. Numbered stars: 1 amine (or outer) side, 2 acyl side, 3 side chain; on linkers, the order of the positions; unused ones are H or OH. Square brackets hold non-standard residues; d marks the D form. Side chains are listed from the residue outwards. Peptide text beside a SMILES is read from it. * marks the point of attachment. C20 diacid = O=C(O)CCCCCCCCCCCCCCCCCCC(=O)*; γGlu = O=C(O)[C@H](CCC(=O)[*:2])N[*:1]; 1Nal = N[C@@H](Cc1cccc2ccccc12)C(=O)O; AEEA = NCCOCCOCC(=O)O; Aib = CC(C)(N)C(=O)O

Assays:
[1] = target: T1, human GLP-1R (Homo sapiens, UniProt P43220); experiment: Functional hGLP-1R cAMP assay in HEK-293 clonal cells; format: cell-based; details: HEK293; percent of maximal response of hGLP-1(7-36)NH2
T1 construct: expressed in transfected cells; host or cells: 293HEK, Hygromycin-selected; crude plasma membranes
T1 sequence (P43220 24-463): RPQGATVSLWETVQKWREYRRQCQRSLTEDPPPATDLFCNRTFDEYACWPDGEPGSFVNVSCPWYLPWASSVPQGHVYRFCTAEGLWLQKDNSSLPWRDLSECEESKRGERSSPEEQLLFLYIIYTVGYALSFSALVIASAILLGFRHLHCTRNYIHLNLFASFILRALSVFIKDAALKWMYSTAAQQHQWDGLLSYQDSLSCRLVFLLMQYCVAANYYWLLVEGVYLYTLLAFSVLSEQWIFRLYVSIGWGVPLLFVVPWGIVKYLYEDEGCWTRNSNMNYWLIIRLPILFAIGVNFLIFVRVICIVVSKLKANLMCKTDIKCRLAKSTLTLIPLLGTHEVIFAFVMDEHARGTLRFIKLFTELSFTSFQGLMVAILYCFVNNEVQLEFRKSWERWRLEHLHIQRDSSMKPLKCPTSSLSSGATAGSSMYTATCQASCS
Experimental: (§1) After an incubation of 60 minutes at room temperature, the resulting increase in intracellular cAMP is quantitatively determined using the CisBio cAMP Dynamic 2 HTRF Assay Kit (Bedford, Mass.). Briefly, cAMP levels within the cell are detected by adding the cAMP-d2 conjugate in cell lysis buffer (20 μl) followed by the antibody anti-cAMP-Eu^3+-Cryptate, also in cell lysis buffer (20 μl). The resulting competitive assay is incubated for at least 60 minutes at room temperature, then detected using a PerkinElmer Envision® instrument with excitation at 320 nm and emission at 665 nm and 620 nm Envision units (emission at 665 nm/620 nm*10,000) are inversely proportional to the amount of cAMP present and are converted to nM cAMP per well using a cAMP standard curve. […] A relative EC50 value and percent top (Emax) is derived by non-linear regression analysis using the percent maximal response versus the concentration of the compound of the present invention, fitted to a four-parameter logistic equation.

[2] = target: Human GCGR (Homo sapiens, UniProt P47871); experiment: Functional hGCGR cAMP assay in HEK-293 clonal cells
Human GCGR, sequence (P47871 26-477): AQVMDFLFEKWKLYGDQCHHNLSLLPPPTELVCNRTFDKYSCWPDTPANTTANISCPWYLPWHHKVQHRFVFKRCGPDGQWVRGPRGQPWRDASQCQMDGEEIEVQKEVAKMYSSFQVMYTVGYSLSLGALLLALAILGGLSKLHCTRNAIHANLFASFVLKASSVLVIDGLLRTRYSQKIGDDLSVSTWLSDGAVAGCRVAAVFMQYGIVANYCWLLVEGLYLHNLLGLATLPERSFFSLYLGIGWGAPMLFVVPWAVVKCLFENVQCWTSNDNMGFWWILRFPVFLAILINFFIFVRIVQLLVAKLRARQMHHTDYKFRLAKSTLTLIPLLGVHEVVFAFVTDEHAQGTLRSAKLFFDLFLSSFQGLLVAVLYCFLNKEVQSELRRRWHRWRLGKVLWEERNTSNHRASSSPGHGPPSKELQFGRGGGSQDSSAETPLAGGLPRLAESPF

[3] = Pharmacokinetics in cynomolgus monkeys; format: in vivo; details: cynomolgus monkey, plasma
Experimental: The compounds are administered by a single intravenous or subcutaneous dose (0.2 mg/kg) in 20 mM citrate buffer (pH 7.0) at a volume of 0.21 ml/kg. Blood is collected from each animal at 2, 4, 8, 12, 24, 48, 72, 96, 120, 144, 168, 204, 240, and 312 hours post-dosage. The plasma concentrations of compounds of the present invention are determined by a LC/MS method. Briefly, a compound of the present invention is extracted from 100% Monkey plasma sample (50 μl) diluted with 1×PBS (150 μl) and mixed with N-butanol (400 μl). Three distinct liquid layers are formed with the compound located in the top layer. A volume of 200 μl is transferred to a v-bottom 96-well plate, dried down using heated Nitrogen gas and reconstituted with 100 μl of 30% acetonitrile/0.1% formic acid. 20 μl of the reconstituted sample is injected onto a Supelco Analytical Discovery bio wide C5 3 μm column. The column effluent is directed into a Thermo Q-Exactive mass spectrometer for detection and quantitation.

[4] = target: T2, human GIP-R (Homo sapiens, UniProt P48546); experiment: Functional hGIP-R cAMP assay in HEK-293 clonal cells; details: HEK293, read-out: Human GIP-R Emax
T2 sequence (P48546 22-466): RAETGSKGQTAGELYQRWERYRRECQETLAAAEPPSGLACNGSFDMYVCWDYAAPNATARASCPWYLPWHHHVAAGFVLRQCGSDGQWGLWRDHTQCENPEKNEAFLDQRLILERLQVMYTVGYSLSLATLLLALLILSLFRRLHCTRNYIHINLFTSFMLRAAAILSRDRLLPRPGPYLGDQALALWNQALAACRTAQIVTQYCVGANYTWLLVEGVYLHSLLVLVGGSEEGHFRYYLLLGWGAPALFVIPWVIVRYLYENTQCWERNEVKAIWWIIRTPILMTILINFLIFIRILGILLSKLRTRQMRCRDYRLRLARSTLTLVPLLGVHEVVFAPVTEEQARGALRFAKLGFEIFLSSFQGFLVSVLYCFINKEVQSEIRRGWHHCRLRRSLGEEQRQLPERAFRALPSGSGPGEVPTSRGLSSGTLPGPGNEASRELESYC
Experimental: as §1

[5] = Plasma corticosterone in Sprague Dawley rats; format: in vivo, rat; details: for Corticosterone, Mean: 16 hours
Experimental: Plasma corticosterone levels are evaluated using Sprague Dawley Rats (Harlan, Indianapolis), weighing approximately 220 g and acclimated for at least 72 hours before handling. The rats are then dosed with vehicle (20 mM citrate buffer, pH 7), semaglutide (10 nmol/kg), or compounds of the present invention at 3, 10 or 30 nmol/kg s.c. with 8 rats per dose group. The rats are decapitated 16 hours later. Blood is collected into EDTA tubes on ice, then centrifuged 5 minutes at 8000 RPM in a Eppendorf 5402 tabletop centrifuge. Plasma is stored at −80° C. until analysis.
For corticosterone analysis, corticosterone standards (Sigma, 27840) are prepared by serial dilutions in HPLC-grade methanol, H2O and the addition of 5% charcoal stripped rat serum (Bioreclamation, RATSRM-STRPD-HEV). Rat plasma samples are diluted with PBS, precipitated with cold methanol, incubated for 20 minutes at −20° C., and then centrifuged at 14,000 RPM with an Eppendorf 5417R at 4° C. Supernatants are extracted, evaporated under a stream of N2 gas, and reconstituted in MeOH/H2O (1:1) solution.

[6] = target: T1, human GLP-1R; format: binding
[7] = Rat in vivo insulin secretion following intravenous glucose (IVGTT); details: s.c. 16 hour prior to glucose
Experimental: Male Wistar rats (Harlan Labs, Indianapolis, Ind.) are randomized by body weight and dosed 1.5 ml/kg s.c. 16 hour prior to glucose administration and then fasted. Doses are vehicle, 0.1, 0.3, 1, 3 and 10 nmol/kg. Animals are weighed, and then anesthetized with sodium pentobarbital (Nembutal Sodium solution; Ovation Pharmaceuticals) dosed i.p. (65 mg/kg, 30 mg/ml). A time zero blood sample is collected into EDTA tubes after which glucose is administered ([…], 5 ml/kg). Blood samples are collected at 2, 4, 6, 10, 20, and 30 minutes post glucose. Plasma glucose levels are determined using a Hitachi analyzer (Roche) and plasma insulin is measured by the MSD insulin assay (Meso Scale, Gaithersburg, Md.).

[8] = Weight loss, body composition and hepatic steatosis in DIO mice; format: in vivo, mouse; details: for Blood Glucose: Day 15
Experimental: The effects on weight loss, body composition and hepatic steatosis in DIO mice for compounds of the present invention are evaluated in C57/BL6 DIO mice. […] Animals are individually housed in a temperature-controlled (24° C.) facility with a 12 hour light/dark cycle (lights on 22:00), and free access to food and water. […] Daily body weight and food intake are measured throughout the study. Absolute changes in body weight are calculated by subtracting the body weight of the same animal prior to the first injection of compound. […] On Day 15, blood glucose is measured with Accu-Chek glucometer (Roche) from tail vein blood and then animals may be sacrificed and livers removed and frozen. Liver triglycerides, determined from homogenates of livers collected at sacrifice, and plasma cholesterol are measured on a Hitachi Modular P clinical analyzer. Statistical comparisons between groups are done using one-way ANOVA followed by Dunnett's multiple comparison test. The ED50 for weight loss lowering is determined in GraphPad Prism using the non-linear fit tool.

[9] = single SC 0.2 mg/kg, male monkeys, n = 2

For `CC[C@H](C)[C@H](NC(=O)[C@H](CC(C)C)NC(=O)[C@H](Cc1c[nH]c2ccccc12)NC(=O)[C@H](CCC(N)=O)NC(=O)[C@@H](NC(=O)[C@H](Cc1ccccc1)NC(=O)[C@H](C)NC(=O)[C@H](CCCCNC(=O)COCCOCCNC(=O)COCCOCCNC(=O)CC[C@H](NC(=O)CCCCCCCCCCCCCCCCCCC(=O)O)C(=O)O)NC(=O)[C@H](CCC(N)=O)NC(=O)[C@H](C)NC(=O)[C@@H](NC(=O)[C@H](CCCCN)NC(=O)[C@H](CC(=O)O)NC(=O)[C@H](CC(C)C)NC(=O)C(C)(C)NC(=O)[C@@H](NC(=O)[C@H](CO)NC(=O)[C@H](Cc1ccc(O)cc1)NC(=O)[C@H](CC(=O)O)NC(=O)[C@H](CO)NC(=O)[C@@H](NC(=O)[C@H](Cc1ccccc1)NC(=O)[C@@H](NC(=O)CNC(=O)[C@H](CCC(=O)O)NC(=O)C(C)(C)NC(=O)[C@@H](N)Cc1ccc(O)cc1)[C@@H](C)O)[C@@H](C)O)[C@@H](C)CC)[C@@H](C)CC)C(C)C)C(=O)N[C@@H](C)C(=O)NCC(=O)NCC(=O)N1CCC[C@H]1C(=O)N[C@@H](CO)C(=O)N[C@@H](CO)C(=O)NCC(=O)N[C@@H](C)C(=O)N1CCC[C@H]1C(=O)N1CCC[C@H]1C(=O)N1CCC[C@H]1C(=O)N[C@@H](CO)C(N)=O` [Example 1], the Emax [1] was 85.2 ± 4.4%, the EC50 [2] was > 1000 nM and the Tmax ([3]; sc, single subcutaneous dose 0.2 mg/kg, read-out: time of mean maximum plasma concentration) was ~8 h. It also gave a clearance ([3]; 0.2 mg/kg single dose) of 0.73 mL/h/kg, a half-life ([3]; 0.2 mg/kg single dose, read-out: mean half-life (converted)) of 55 h and a bioavailability ([3]; subcutaneous vs intravenous, 0.2 mg/kg) of ~83%. For the same compound, the Emax [4] was 97.9 ± 3%, the “Corticosterone, Mean” value ([5]; 3 nmol/kg s.c.) was 52.21 ng/mL and the “Corticosterone, Mean” value ([5]; 10 nmol/kg s.c.) was 32.46 ng/mL. For the same compound, the “Corticosterone, Mean” value ([5]; 30 nmol/kg s.c.) was 31.35 ng/mL and the “increase in plasma corticosterone levels over control” value ([5]; Example 1 at 3, 10, 30 nmol/kg, semaglutide 10 nmol/kg) was “no increase in plasma corticosterone levels”.
In the case of `CC[C@H](C)[C@H](NC(=O)[C@H](CC(C)C)NC(=O)[C@H](Cc1c[nH]c2ccccc12)NC(=O)[C@H](CCC(N)=O)NC(=O)[C@@H](NC(=O)[C@H](Cc1cccc2ccccc12)NC(=O)[C@H](C)NC(=O)[C@H](CCCCNC(=O)COCCOCCNC(=O)COCCOCCNC(=O)CC[C@H](NC(=O)CCCCCCCCCCCCCCCCCCC(=O)O)C(=O)O)NC(=O)[C@H](CCC(N)=O)NC(=O)[C@H](C)NC(=O)[C@@H](NC(=O)[C@H](CCCCN)NC(=O)[C@H](CC(=O)O)NC(=O)[C@H](CC(C)C)NC(=O)C(C)(C)NC(=O)[C@@H](NC(=O)[C@H](CO)NC(=O)[C@H](Cc1ccc(O)cc1)NC(=O)[C@H](CC(=O)O)NC(=O)[C@H](CO)NC(=O)[C@@H](NC(=O)[C@H](Cc1ccccc1)NC(=O)[C@@H](NC(=O)CNC(=O)[C@H](CCC(=O)O)NC(=O)C(C)(C)NC(=O)[C@@H](N)Cc1ccc(O)cc1)[C@@H](C)O)[C@@H](C)O)[C@@H](C)CC)[C@@H](C)CC)C(C)C)C(=O)N[C@@H](C)C(=O)NCC(=O)NCC(=O)N1CCC[C@H]1C(=O)N[C@@H](CO)C(=O)N[C@@H](CO)C(=O)NCC(=O)N[C@@H](C)C(=O)N1CCC[C@H]1C(=O)N1CCC[C@H]1C(=O)N1CCC[C@H]1C(=O)N[C@@H](CO)C(N)=O` [Example 8] (H-Y[Aib]EGTFTSDYSI[Aib]LDKIAQK([AEEA-AEEA-γGlu-C20 diacid])A[1Nal]VQWLIAGGPSSGAPPPS-NH2), the Emax [1] is reported as 88.4 ± 2.3%, the EC50 [2] is reported as > 1000 nM and the “Molar ratio of hGLP-1R/hGIP-R” value ([6]; normalized by factor 4.53 from native GIP and GLP-1 binding) is reported as 0.99. The “Absolute ratio of hGLP-1R/hGIP-R” value ([6]; ratio of Ki values) was 4.5, the CL/F [3, 9] was 4.7 mL/h/kg and the Cmax [3, 9] was 1000 ng/mL. For the same compound, the AUC(0-inf) ([3]; single SC 0.2 mg/kg, male monkeys, n = 2, read-out: Mean AUC0-inf) was 42800 ng·h/mL, the half-life ([3]; single SC 0.2 mg/kg, male monkeys, n = 2, read-out: Mean T1/2 (converted)) was 23 h and the Tmax ([3]; single SC 0.2 mg/kg, male monkeys, n = 2, read-out: Mean Tmax) was 10 h. The Emax [4] was 108 ± 4%, the “% max increase of insulin AUC” value [7] was 324 +/− 30% and the “ED50 for insulin, rat IVGTT” value [7] was 6.13 nmol/kg. The “% Change from starting body weight” value ([8]; Table 10, 10 nmol/kg) was −17.13 ± 0.81 %, the “% Change from starting fat mass” value ([8]; Table 10, 10 nmol/kg) was −34.20 ± 1.62 % and the “% Change from starting body weight” value ([8]; Table 10, 30 nmol/kg) was −25.27 ± 0.70 %. The “% Change from starting fat mass” value ([8]; Table 10, 30 nmol/kg) was −54.24 ± 2.35 %, the “% Change from starting body weight” value ([8]; Table 10, 100 nmol/kg) was −29.91 ± 2.03 % and the “% Change from starting fat mass” value ([8]; Table 10, 100 nmol/kg) was −65.23 ± 6.69 %. For the same compound, the “Plasma Cholesterol” value ([8]; Table 13, 10 nmol/kg) was 158.8 ± 7.57 mg/dL, the “Blood Glucose” value ([8]; Table 13, 10 nmol/kg) was 114.7 ± 4.61 mg/dL and the “Plasma Cholesterol” value ([8]; Table 13, 30 nmol/kg) was 139.4 ± 6.83 mg/dL. The “Blood Glucose” value ([8]; Table 13, 30 nmol/kg) was 117.1 ± 8.26 mg/dL, the “Plasma Cholesterol” value ([8]; Table 13, 100 nmol/kg) was 127.8 ± 6.34 mg/dL and the “Blood Glucose” value ([8]; Table 13, 100 nmol/kg) was 125.4 ± 6.30 mg/dL.
